Measured values as given in patent publication US8969516B2, “Method of hydrolysis of peptide bond” (priority 2006, dated 2015).

Experiment: MALDI-TOF screening of Ni^2+ dependent hydrolysis in a combinatorial peptide library
Type: physicochemical
Conditions: Ni^2+ 2 mM, pH 8.2, 10 mM Tris, score=24/tm
From the text: The sequence CH3CO-Gly-Ala-Ser/Thr-X-His-Z-Lys-Phe-Leu-NH2 was designed so that the fixed R1 and R2 sequences, CH3CO-Gly-Ala, and Lys-Phe-Leu-NH2, respectively, allowed optimal detection by MALDI-TOF mass spectrometry of substrates as well as expected products, Ser/Thr-X-His-Z-Lys-Phe-Leu-NH2 and assured separation between the clusters of signals for substrates and products in sublibraries (see below).
Residues in position X included all amino acids commonly present in proteins, except for Asp, Glu, and Cys. The former two contain carboxylates in their side chains, which may bind Ni^2+ in a way which would quench or slow down the hydrolysis reaction. The Cys residue may do the same, and also may engage in side reactions with Ni^2+ ions, including redox processes (for example see Bal and Kasprzak, Toxicol. Lett. 2002, 127, 55-62). Only the Cys residue was eliminated from position Z, for the same reasons.
The synthesis of the library was accomplished on a RINK amide resin (Novabiochem) on a 800 mg scale, according to a typical Fmoc protocol (Fields, Meth. Enzymol. Vol. 289). The resin-attached Leu-Phe-Lys peptide was synthesised first and coupled with the isokinetic mixture of 19 amino acids selected for position Z, and then with the H is residue. The resin carrying the library of pentapeptides was divided into Ser and Thr halves at this stage, and each of these halves into 17 portions, which were coupled with individual amino acids selected for position X. The coupling with Ser or Thr as appropriate, additions of Ala and Gly residues, acetylation of Gly, deprotection and cleavage from the resin were accomplished subsequently. Each of the resulting 34 samples of sublibraries randomized at position X was separated into two portions, one for the reaction at 37° C. and another for the reaction at 45° C. The hydrolysis reactions were accomplished in 10 mM Tris buffers at pH 8.2. The total concentrations of peptide mixtures and Ni^2+ ions were 1 mM and 2 mM, respectively. The pH for the reaction was chosen as selective for highly reactive sequences.
The detection of reaction products was accomplished with the use of a MALDI-TOF mass spectrometer (Micromass). The aliquots were removed from reaction mixtures and measured by MS at 2, 4, 6, and 8 hours of incubation. The progress of reaction was evaluated by visual detection in mass spectra of appearance of signals corresponding to expected products of hydrolysis, Ser/Thr-X-His-Z-Lys-Phe-Leu-NH2, at given measurement times, tm. […] Also the decrease of signals of substrates was controlled in these cases.
Residues X and Z were then sorted according to various molecular parameters, describing their physical properties (Carugo, In Silico Biol. 2003, 3, 0035). […] The Ser library provided a higher number of reactive peptides than the Thr library. Following the additivity of effects, the scores were also summed up in lines and columns of Table 1A-D, thereby creating final rankings for preferred substitutions in positions X and Z.

[1] = CH3CO-Gly-Ala-Ser-X-His-Z-Lys-Phe-Leu-NH2 library, 37° C.
[2] = CH3CO-Gly-Ala-Ser-X-His-Z-Lys-Phe-Leu-NH2 library, 45° C.
[3] = CH3CO-Gly-Ala-Thr-X-His-Z-Lys-Phe-Leu-NH2 library, 37° C.
[4] = CH3CO-Gly-Ala-Thr-X-His-Z-Lys-Phe-Leu-NH2 library, 45° C.

| Substance | hydrolysis score from MALDI-TOF screening [1] | hydrolysis score from MALDI-TOF screening [2] | hydrolysis score from MALDI-TOF screening [3] | hydrolysis score from MALDI-TOF screening [4] |
| --- | --- | --- | --- | --- |
| Ac-GASPHVKFL-NH2 [SPHV] | 0 (a score of 0 if no trace of the product of hydrolysis was seen after 8 hours of incubation) | 0 (a score of 0 if no trace of the product of hydrolysis was seen after 8 hours of incubation) |  |  |
| Ac-GATTHPKFL-NH2 [TTHP] |  |  | 0 (a score of 0 if no trace of the product of hydrolysis was seen after 8 hours of incubation) | 0 (a score of 0 if no trace of the product of hydrolysis was seen after 8 hours of incubation) |
| Ac-GATMHEKFL-NH2 [TMHE] |  |  | 0 (a score of 0 if no trace of the product of hydrolysis was seen after 8 hours of incubation) | 0 (a score of 0 if no trace of the product of hydrolysis was seen after 8 hours of incubation) |
| Ac-GASYHWKFL-NH2 [SYHW] | 6 (a score of 6 for detection at 4 hours) | 6 (a score of 6 for detection at 4 hours) |  |  |
| Ac-GASFHFKFL-NH2 [SFHF] | 3 (a score of 3 for detection at 8 hours) | 6 (a score of 6 for detection at 4 hours) |  |  |
| Ac-GASSHAKFL-NH2 [SSHA] | 0 (a score of 0 if no trace of the product of hydrolysis was seen after 8 hours of incubation) | 3 (a score of 3 for detection at 8 hours) |  |  |
| Ac-GASWHFKFL-NH2 [SWHF] | 3 (a score of 3 for detection at 8 hours) | 4 (a score of 4 for detection at 6 hours) |  |  |
| Ac-GASPHFKFL-NH2 [SPHF] | 0 (a score of 0 if no trace of the product of hydrolysis was seen after 8 hours of incubation) | 0 (a score of 0 if no trace of the product of hydrolysis was seen after 8 hours of incubation) |  |  |
| Ac-GATGHVKFL-NH2 [TGHV] |  |  | 0 (a score of 0 if no trace of the product of hydrolysis was seen after 8 hours of incubation) | 0 (a score of 0 if no trace of the product of hydrolysis was seen after 8 hours of incubation) |
| Ac-GATWHLKFL-NH2 [TWHL] |  |  | 0 (a score of 0 if no trace of the product of hydrolysis was seen after 8 hours of incubation) | 3 (a score of 3 for detection at 8 hours) |
| Ac-GATQHGKFL-NH2 [TQHG] |  |  | 0 (a score of 0 if no trace of the product of hydrolysis was seen after 8 hours of incubation) | 0 (a score of 0 if no trace of the product of hydrolysis was seen after 8 hours of incubation) |
| Ac-GASLHIKFL-NH2 [SLHI] | 3 (a score of 3 for detection at 8 hours) | 0 (a score of 0 if no trace of the product of hydrolysis was seen after 8 hours of incubation) |  |  |
| Ac-GATKHTKFL-NH2 [TKHT] |  |  | 0 (a score of 0 if no trace of the product of hydrolysis was seen after 8 hours of incubation) | 0 (a score of 0 if no trace of the product of hydrolysis was seen after 8 hours of incubation) |
| Ac-GATFHLKFL-NH2 [TFHL] |  |  | 0 (a score of 0 if no trace of the product of hydrolysis was seen after 8 hours of incubation) | 0 (a score of 0 if no trace of the product of hydrolysis was seen after 8 hours of incubation) |
| Ac-GATLHPKFL-NH2 [TLHP] |  |  | 0 (a score of 0 if no trace of the product of hydrolysis was seen after 8 hours of incubation) | 0 (a score of 0 if no trace of the product of hydrolysis was seen after 8 hours of incubation) |
| Ac-GATLHQKFL-NH2 [TLHQ] |  |  | 0 (a score of 0 if no trace of the product of hydrolysis was seen after 8 hours of incubation) | 0 (a score of 0 if no trace of the product of hydrolysis was seen after 8 hours of incubation) |
| Ac-GASMHSKFL-NH2 [SMHS] | 0 (a score of 0 if no trace of the product of hydrolysis was seen after 8 hours of incubation) | 3 (a score of 3 for detection at 8 hours) |  |  |
| Ac-GASFHLKFL-NH2 [SFHL] | 4 (a score of 4 for detection at 6 hours) | 6 (a score of 6 for detection at 4 hours) |  |  |
| Ac-GATVHDKFL-NH2 [TVHD] |  |  | 0 (a score of 0 if no trace of the product of hydrolysis was seen after 8 hours of incubation) | 0 (a score of 0 if no trace of the product of hydrolysis was seen after 8 hours of incubation) |
| Ac-GATRHVKFL-NH2 [TRHV] |  |  | 3 (a score of 3 for detection at 8 hours) | 4 (a score of 4 for detection at 6 hours) |
| Ac-GASRHFKFL-NH2 [SRHF] | 4 (a score of 4 for detection at 6 hours) | 4 (a score of 4 for detection at 6 hours) |  |  |
| Ac-GASIHAKFL-NH2 [SIHA] | 0 (a score of 0 if no trace of the product of hydrolysis was seen after 8 hours of incubation) | 0 (a score of 0 if no trace of the product of hydrolysis was seen after 8 hours of incubation) |  |  |
| Ac-GASKHQKFL-NH2 [SKHQ] | 0 (a score of 0 if no trace of the product of hydrolysis was seen after 8 hours of incubation) | 0 (a score of 0 if no trace of the product of hydrolysis was seen after 8 hours of incubation) |  |  |
| Ac-GATSHGKFL-NH2 [TSHG] |  |  | 0 (a score of 0 if no trace of the product of hydrolysis was seen after 8 hours of incubation) | 0 (a score of 0 if no trace of the product of hydrolysis was seen after 8 hours of incubation) |
| Ac-GATTHTKFL-NH2 [TTHT] |  |  | 0 (a score of 0 if no trace of the product of hydrolysis was seen after 8 hours of incubation) | 0 (a score of 0 if no trace of the product of hydrolysis was seen after 8 hours of incubation) |
| Ac-GATSHWKFL-NH2 [TSHW] |  |  | 0 (a score of 0 if no trace of the product of hydrolysis was seen after 8 hours of incubation) | 0 (a score of 0 if no trace of the product of hydrolysis was seen after 8 hours of incubation) |
| Ac-GASSHPKFL-NH2 [SSHP] | 0 (a score of 0 if no trace of the product of hydrolysis was seen after 8 hours of incubation) | 0 (a score of 0 if no trace of the product of hydrolysis was seen after 8 hours of incubation) |  |  |
| Ac-GATTHFKFL-NH2 [TTHF] |  |  | 0 (a score of 0 if no trace of the product of hydrolysis was seen after 8 hours of incubation) | 0 (a score of 0 if no trace of the product of hydrolysis was seen after 8 hours of incubation) |
| Ac-GATAHRKFL-NH2 [TAHR] |  |  | 0 (a score of 0 if no trace of the product of hydrolysis was seen after 8 hours of incubation) | 0 (a score of 0 if no trace of the product of hydrolysis was seen after 8 hours of incubation) |
| Ac-GATPHWKFL-NH2 [TPHW] |  |  |  | 0 (a score of 0 if no trace of the product of hydrolysis was seen after 8 hours of incubation) |
